Read-outs that look alike come from different tables or passages of the source.

This is an account of results in article PMC7385176, “Engineering a disulfide-gated switch in streptavidin enables reversible binding without sacrificing binding affinity” (Scientific Reports, 2020).

Series [1] is described as follows: Biotin-4-fluorescein off-rate assay (competitive, fluorescence quenching; Arrhenius extrapolation).
Protocol: Dissociation kinetics were measured with a competitive assay exploiting the fluorescence quenching of B4F upon binding to streptavidin[13],[30]. In a total volume of 200 μL, 50 nM streptavidin, 10 nM B4F (Invitrogen), 50 mM NaCl, 1 mM EDTA, 20 mM Tris pH 8, were incubated for 30 min. Biotin was added to 0.1 mM to prevent B4F re-association and fluorescence was monitored using a Tecan Infinite M200 plate reader with 485 nm excitation/525 nm emission for 12 h at 25 °C. The maximum, with all B4F unbound, and minimum, with all B4F bound, fluorescence was determined with similar mixtures in the absence of either streptavidin or biotin, respectively, and the fraction of B4F released at each time point was calculated as %B4FReleased=response-min/max-min×100% . […] The rapid phase was ignored and off-rate constants were determined by nonlinear least squares fitting of the data to the single exponential function y=1-e^kt .
High-temperature kinetics were measured by the same competitive assay but instead using a Horiba Jobin–Yvon FluoroMax-4 spectrofluorometer. To limit evaporation and condensation within the cuvette, it was filled to the top with 4 mL of solution using the same concentrations of reagents as above. Fluorescence was initially measured without streptavidin, giving the maximum, unquenched signal. Streptavidin was then added and allowed to equilibrate until a constant fluorescent signal was achieved, and unlabelled biotin was added to start the experiment. At these higher temperatures, the rapid release phase was more apparent and accounted for by fitting the data to the double exponential function y=max-ae^-kat-be^-kbt. The linear Arrhenius plot was generated by plotting ln(koff) against 1/temperature. A linear least squares fit to the function lnkoff=lnA-Ea/RT was used to extrapolate the dissociation constant at lower temperatures.
Series [2] is described as follows: Thermostability assay (heating in SDS, SDS-PAGE of tetramer). It is filed as physicochemical. Particulars: for denaturation of the tetramer: presence of biotin. On the procedure: To assess thermostability, SDS was added to 2% to wild-type or previously oxidized M88 or M112 and was incubated in the presence or absence of 5 mM biotin and in the presence and absence of 200 mM β-mercaptoethanol for 15 min. The samples were heated at 75 or 95 °C for 1 h and aliquots taken every 5 min for the first 30 min, and then at 45 and 60 min. Samples from each time point were run on a 12% SDS-PAGE gel, which were than stained with Coomassie blue. Band intensity was quantified using ImageJ software and the fraction of protein that remained tetrameric was determined relative to time zero. The band intensities for a series of standards was determined to indicate the linear range for quantification.

A short description of series [3]: Biotin-4-fluorescein on-rate assay. It is filed as binding. The following applies: 25 °C. As for the experimental part: Association kinetics were also monitored by utilizing B4F. […] 20 μL streptavidin was added and measurements were started immediately on a Horiba FluoroMax-4 spectrofluorometer with 490 nm excitation/525 nm emission and 2 and 15 nm slit widths, respectively, for the monochromator. Protein concentrations used were: 0.4, 0.8, 1.6, 2.4, 3.2 nM for wt; 0.8, 1.6, 3.2, 6.4 nM for oxidized M112; 0.4, 0.8, 1.6, 3.2 nM for reduced M112; 0.77, 1.5, 3.1, 6.1 nM for reduced M88 and 6.25, 12.5, 25, 50 nM for traptavidin. For oxidized M88, measurements were done in 60 μL total volume using 10 nM B4F and 50, 100, 200 and 400 nM M88.

Series [4] is described as follows: Rate of disulfide bond formation (Alexa Fluor 633 maleimide labelling). The series is classed as physicochemical. Particulars: 10 mM GSSG. From the text: Protein disulfide bond formation was catalyzed by thiol-disulfide exchange with either oxidized glutathione (GSSG) or 2,2′-dipyridyldisulfide. Disulfide bonds were inferred by selectively labelling free Cys with Alexa Fluor 633 C5 maleimide (Invitrogen) and subsequent separation by Tricine SDS-PAGE[50]. Detection is based on both fluorescence and a mobility shift due to the large size of these labels (~ 1.3 kDa each, ~ 2.6 kDa if both cysteines in M88 or M112 react). Ratios of reactants were based on those previously described for saturation labelling. Because the N- and C-terminal tails are susceptible to degradation by trace proteases, leading to band heterogeneity in the gel, core-form versions of M88 and M112 were primarily used for this assay. […] Immediately after the run, fluorescence was measured with excitation by 635 nm laser and emission collected through a 665 nm long-pass filter on a Typhoon FLA 9,500 laser scanner (GE Healthcare).
To measure the time course of disulfide formation, streptavidin muteins were reduced with TCEP which was subsequently removed by centrifugal filtration. […] Fluorescence intensity of each band was quantified using ImageQuant software and the amount off free Cys at each timepoint was determined relative to the initial amount. […]

The conditions of series [5]: cited from earlier work.

Take “M88 oxidized: M88 (N49C/A86C streptavidin mutein) with the Cys-49/Cys-86 disulfide bond formed”: the “change in B4F fluorescence (dissociation)” value in series [1] (25 °C, after 12 h) is listed as “no change in B4F fluorescence measurable”. Further, in series [1] (25 °C, extrapolated), the “rate of dissociation lower than wild-type streptavidin” value is given as 225 fold. Further, the “stability during kinetics measurement” value in series [1] (90 °C) is “appeared to be stable”. In addition, the “rate of dissociation relative to traptavidin” value in series [1] (Arrhenius plot, 25–90 °C) is given as “approximately half”. For the same substance, the t1/2 in series [1] (B4F, 25 °C, calculated as ln(2)/koff) was 18.3 ± 6.1 years. Moreover, the koff in series [1] (B4F, 25 °C, extrapolated from the Arrhenius plot) was 1.2 ± 0.4 × 10^–9 s^-1. In addition, the “tetramer state after heating” value in series [2] (75 °C, without biotin, 60 min incubation) was “remains tetrameric”. The “denaturation of the tetramer” value in series [2] (95 °C, 60 min incubation) is recorded as “no appreciable denaturation”. Also, in series [3], the “decrease in rate of association compared to the reduced form of M88” value came out at 18.5 fold and the “decrease in rate of association compared to wild-type streptavidin” value was 117 fold. Moreover, the kon in series [3] (B4F, ± standard error) is given as 4.6 ± 0.3 × 10^5 M^-1 s^-1.
Take “M112: streptavidin mutein G26C/A46C with a Cys-26/Cys-46 disulfide bond on the N-terminal side of loop 3–4”: the “pseudo-first order rate constant of disulfide bond formation” value stood at 0.14 ± 0.02 h⁻¹ in series [4] (21 °C) and 0.41 ± 0.06 h⁻¹ in series [4] (37 °C). Moreover, in series [1] (25 °C), the “increase in rate of dissociation for B4F, oxidized vs reduced M112” value is listed as ~ 60 fold.
As to “Wild-type: 66-kDa homotetrameric biotin-binding protein from Streptomyces avidinii; obtained from Bio Basic”, the melting temperature is 75.5 °C in series [5] (apo-streptavidin) and 112.2 °C in series [5] (streptavidin–biotin complex). For the same substance, in series [5] (presence of SDS), the “state at boiling temperatures” value was “remains tetrameric and bound to biotin”. Moreover, the “time to denature completely” value in series [2] (75 °C, absence of biotin) was not above 5 min. The “time to complete denaturation” value in series [2] (95 °C, biotin absent) was “less than 1 min”. Further, the “denaturation of the tetramer” value in series [2] (95 °C, 60 min incubation) was “no appreciable denaturation”.
